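Test compounds were applied to cells in 96-well plates for 48 hours at 5 doses. GI50 is the concentration that inhibits growth by half. TGI is the concentration that stops growth completely.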
Tests used:
Test in all cases: inhibition of tumour cell growth, NCI panel, 48 h
A498 renal = tested on: A498 renal
A549 NSCLC = tested on: A549 NSCLC
SF-268 CNS = tested on: SF-268 CNS
HL-60(TB) leukemia = tested on: HL-60(TB) leukemia
COLO 205 colon = tested on: COLO 205 colon
UACC-62 melanoma = tested on: UACC-62 melanoma
HCC-2998 colon = tested on: HCC-2998 colon
TK-10 renal = tested on: TK-10 renal
RPMI-8226 leukemia = tested on: RPMI-8226 leukemia
OVCAR-4 ovarian = tested on: OVCAR-4 ovarian

SMILES | TGI (A498 renal) [µM] | TGI (A549 NSCLC) [µM] | TGI (SF-268 CNS) [µM] | TGI (HL-60(TB) leukemia) [µM] | TGI (COLO 205 colon) [µM] | TGI (UACC-62 melanoma) [µM] | TGI (HCC-2998 colon) [µM] | TGI (TK-10 renal) [µM] | TGI (RPMI-8226 leukemia) [µM] | TGI (OVCAR-4 ovarian) [µM] | GI50 (A498 renal) [µM] | GI50 (A549 NSCLC) [µM] | GI50 (SF-268 CNS) [µM] | GI50 (HL-60(TB) leukemia) [µM] | GI50 (COLO 205 colon) [µM] | GI50 (UACC-62 melanoma) [µM] | GI50 (HCC-2998 colon) [µM] | GI50 (TK-10 renal) [µM] | GI50 (RPMI-8226 leukemia) [µM] | GI50 (OVCAR-4 ovarian) [µM]
COC(=O)C(=O)C(C(=O)C=C(C)C)C(=O)C(=O)Nc1cc(C(F)(F)F)ccc1Cl (stereo not given) | > 100 | > 100 | > 100 | > 100 | > 100 | > 100 | > 100 | > 100 | 67 | > 100 |  |  |  |  |  |  |  |  |  | 
COc1ccc(/C(=C2\O[C@@H]([C@H]3COC(C)(C)O3)[C@H]3OC(C)(C)O[C@@H]23)c2cc(OC)c(OC)c(OC)c2)cc1O | > 100 | > 100 | 31.4 | 23.3 | > 100 | > 100 | > 100 | 61.4 | > 100 | > 100 | 35.7 | 23.2 | 6.95 | 3.39 | 17.4 | 57.9 | 13.2 | 23.4 | 4.63 | 9.18
CC1=C(C(=O)Nc2ccc3[nH]ncc3c2)C(c2ccc3ccccc3c2)CC(=O)N1 (stereo not given) | 22 | > 25 | > 25 | > 25 | > 21.2 | > 25 | > 25 | > 25 | > 25 | > 25 | 4.22 | > 25 | 11.5 | > 25 | 9.96 | 14.5 | > 25 | 8.73 | > 25 | 13.4
Cc1cc(N(CCOS(C)(=O)=O)CCOS(C)(=O)=O)ccc1C=Nc1ccc(-c2nc(Cc3ccccc3)sc2C)cc1 | 6.39 | 21.6 | 20.4 | 28.9 | 4.76 | 16.7 | 15.7 | 33.9 | 31.8 | 36.8 |  |  |  |  |  |  |  |  |  | 
CC[CH2][Pb]([CH2]CC)([CH2]CC)[O]C(=O)C(F)(F)F | 0.245 | 0.563 | 0.43 | 0.247 | 0.374 | 0.3 | 0.343 | 0.533 | 0.403 | 0.178 | 0.0579 | 0.172 | 0.156 | 0.0446 | 0.164 | 0.116 | 0.163 | 0.204 | 0.0627 | 0.0385
Cc1ccc(S(=O)(=O)N(CCOc2ccc(/C(N)=N/Cl)cc2)CCOc2ccc(/C(N)=N\Cl)cc2)cc1 | > 100 | > 100 | 20 | 48.6 | 28.8 | 64.5 | 46.3 | > 100 | > 100 | > 100 | 52.3 | 4.88 | 5.76 | 7.65 | 11 | 19 | 18.2 | 40 | 8.99 | 16.7
N#CSCC1CC(O)(c2ccccc2)C(c2ccccc2)C(c2ccc(Cl)cc2)O1 (stereo not given) | 5.63 | 4.24 | 4.74 | 5.77 | 2.84 | 2.81 | 3.35 | 4.2 | 4.68 | 2.53 | 2.16 | 1.78 | 1.67 | 1.55 | 1.46 | 1.41 | 1.84 | 2.01 | 1.44 | 1.22
CC(C)CC(=O)[O-].CC(C)CC(=O)[O-].N.N.N.N.[Co+3].[O-][Cl+3]([O-])([O-])[O-] | > 100 | > 100 | > 100 | > 100 | > 100 | > 100 | > 100 | > 100 | > 100 | > 100 | > 100 | > 100 | > 100 | > 100 | > 100 | > 100 | > 100 | > 100 | > 100 | > 100
COC(=O)c1cc2c3ccccc3[nH]c2c2ncccc12 | > 100 | > 100 | > 100 | > 100 | > 100 | > 100 | > 100 | > 100 | > 100 | > 100 | > 100 | 75.1 | 53.5 | > 100 | > 100 | > 100 | 73.8 | 12 | 56.3 | 57.3
CCCCCCCCCC[C@@H](O)[C@@H]1CC[C@H]([C@H]2CC[C@@H]([C@@H](O)CCCCCCCCCC[C@H]3CC(CC(C)=O)C(=O)O3)O2)O1 (stereo not given in full) | 71.9 | 30.6 | 31.4 | 2.29 | 28.8 | 32.2 | 47 | 32.8 | 15.4 | 21.7 |  |  |  |  |  |  |  |  |  | 

Source: PubChem BioAssay (NCI)
